# Assay results reported in paper PMC10046369, “Low-Affinity/High-Selectivity Dopamine Transport Inhibition Sufficient to Rescue Cognitive Functions in the Aging Rat” (Biomolecules, 2023).
# Legend:
# Assay in all cases: biochemical
# Parameters in all cases: KINOMEscan competition binding panel, per cent of control
# Conditions in all cases: read-out: %Ctrl @ 2800nM
# ACVR2B = ACVR2B (Homo sapiens, UniProt Q13705)
# Summary of the method: (§1)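 Competition binding panel (KINOMEscan) across 450 human kinases and disease-relevant mutants, run to the contractor's standard protocol. Values are % control: (test signal − positive control signal)/(negative control signal − positive control signal) × 100, with lower values indicating stronger binding.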
# CAMK4 = CAMK4 (Homo sapiens, UniProt Q16566)
# Summary of the method: as §1
# MYO3B = MYO3B (Homo sapiens, UniProt Q8WXR4)
# Summary of the method: as §1
# CDK11 = target: T1, CDK11 (Homo sapiens, UniProt Q9BWU1)
# T1 construct: gene CDK19
# Summary of the method: as §1
# PAK6 = PAK6 (Homo sapiens, UniProt Q9NQU5)
# Summary of the method: as §1
# PAK7 = target: T2, PAK7 (Homo sapiens, UniProt Q9P286)
# T2 construct: gene PAK5
# Summary of the method: as §1
# RAF1 = RAF1 (Homo sapiens, UniProt P04049)
# Summary of the method: as §1
# PLK1 = PLK1 (Homo sapiens, UniProt P53350)
# Summary of the method: as §1
# PRKD2 = PRKD2 (Homo sapiens, UniProt Q9BZL6)
# Summary of the method: as §1
# FAK = target: T3, FAK (Homo sapiens, UniProt Q05397)
# T3 construct: gene PTK2
# Summary of the method: as §1
# LOK = target: T4, LOK (Homo sapiens, UniProt O94804)
# T4 construct: gene STK10
# Summary of the method: as §1
# PIP5K2C = target: T5, PIP5K2C (Homo sapiens, UniProt Q8TBX8)
# T5 construct: gene PIP4K2C
# Summary of the method: as §1
# DMPK = DMPK (Homo sapiens, UniProt Q09013)
# Summary of the method: as §1
# EGFR(S752-I759del) = EGFR(S752-I759del) (Homo sapiens, UniProt P00533, DEL752-759)
# Summary of the method: as §1
# BRSK2 = BRSK2 (Homo sapiens, UniProt Q8IWQ3)
# Summary of the method: as §1
# ERK3 = target: T6, ERK3 (Homo sapiens, UniProt Q16659)
# T6 construct: gene MAPK6
# Summary of the method: as §1
# TRKA = target: T7, TRKA (Homo sapiens, UniProt P04629)
# T7 construct: gene NTRK1
# Summary of the method: as §1
# LKB1 = target: T8, LKB1 (Homo sapiens, UniProt Q15831)
# T8 construct: gene STK11
# Summary of the method: as §1
# PIK3CG = PIK3CG (Homo sapiens, UniProt P48736)
# Summary of the method: as §1
# KIT(L576P) = KIT(L576P) (Homo sapiens, UniProt P10721, L576P)
# Summary of the method: as §1
# [1] = target: T9, RSK3(Kin.Dom.2-C-terminal) (Homo sapiens, UniProt Q15349)
# T9 construct: gene RPS6KA2; Kin.Dom.2-C-terminal
# Summary of the method: as §1
# RET = RET (Homo sapiens, UniProt P07949)
# Summary of the method: as §1
# CLK2 = CLK2 (Homo sapiens, UniProt P49760)
# Summary of the method: as §1
# [2] = target: EGFR(L747-S752del, P753S) (Homo sapiens, UniProt P00533, DEL747-752/P753S)
# Summary of the method: as §1
# RIOK2 = RIOK2 (Homo sapiens, UniProt Q9BVS4)
# Summary of the method: as §1
# CAMK1 = CAMK1 (Homo sapiens, UniProt Q14012)
# Summary of the method: as §1
# T1 sequence (Q9BWU1 whole entry): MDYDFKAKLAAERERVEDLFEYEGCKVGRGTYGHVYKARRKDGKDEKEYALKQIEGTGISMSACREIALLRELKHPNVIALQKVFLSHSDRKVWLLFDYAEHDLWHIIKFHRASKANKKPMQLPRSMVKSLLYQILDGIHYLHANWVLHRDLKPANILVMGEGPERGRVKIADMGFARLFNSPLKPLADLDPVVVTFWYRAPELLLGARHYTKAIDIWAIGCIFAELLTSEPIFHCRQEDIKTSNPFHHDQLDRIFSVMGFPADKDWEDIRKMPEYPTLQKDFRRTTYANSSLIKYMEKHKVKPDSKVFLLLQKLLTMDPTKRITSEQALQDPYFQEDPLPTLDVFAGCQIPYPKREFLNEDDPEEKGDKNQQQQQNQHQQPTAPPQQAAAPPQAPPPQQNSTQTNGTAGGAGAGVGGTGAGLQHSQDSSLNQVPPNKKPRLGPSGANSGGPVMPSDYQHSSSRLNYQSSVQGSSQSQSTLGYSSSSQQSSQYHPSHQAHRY
# ACVR2B, sequence (Q13705 whole entry): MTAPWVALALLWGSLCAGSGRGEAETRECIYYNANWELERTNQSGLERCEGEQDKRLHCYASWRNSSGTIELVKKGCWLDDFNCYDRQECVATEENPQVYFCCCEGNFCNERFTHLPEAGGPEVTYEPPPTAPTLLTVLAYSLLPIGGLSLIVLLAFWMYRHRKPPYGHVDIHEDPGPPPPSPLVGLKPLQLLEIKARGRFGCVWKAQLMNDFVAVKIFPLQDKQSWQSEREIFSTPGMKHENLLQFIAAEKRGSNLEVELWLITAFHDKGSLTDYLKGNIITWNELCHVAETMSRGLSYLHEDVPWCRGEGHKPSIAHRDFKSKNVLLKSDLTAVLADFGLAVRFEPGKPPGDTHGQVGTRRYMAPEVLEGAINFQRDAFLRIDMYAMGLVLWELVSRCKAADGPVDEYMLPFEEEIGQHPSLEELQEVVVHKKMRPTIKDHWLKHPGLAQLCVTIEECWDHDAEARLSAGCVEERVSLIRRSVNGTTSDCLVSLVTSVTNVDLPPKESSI
# T8 sequence (Q15831 whole entry): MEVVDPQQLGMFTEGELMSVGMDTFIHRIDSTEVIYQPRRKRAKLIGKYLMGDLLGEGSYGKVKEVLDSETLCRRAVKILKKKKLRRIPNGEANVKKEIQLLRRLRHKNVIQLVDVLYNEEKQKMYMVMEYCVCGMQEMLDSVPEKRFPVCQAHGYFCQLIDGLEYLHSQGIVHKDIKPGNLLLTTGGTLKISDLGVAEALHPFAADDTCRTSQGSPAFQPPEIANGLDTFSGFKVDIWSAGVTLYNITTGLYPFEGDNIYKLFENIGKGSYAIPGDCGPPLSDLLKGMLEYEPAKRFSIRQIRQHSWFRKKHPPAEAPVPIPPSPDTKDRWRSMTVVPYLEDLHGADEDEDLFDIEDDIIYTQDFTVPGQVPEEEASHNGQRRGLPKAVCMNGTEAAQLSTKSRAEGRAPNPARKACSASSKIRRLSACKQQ
# CAMK1, sequence (Q14012 whole entry): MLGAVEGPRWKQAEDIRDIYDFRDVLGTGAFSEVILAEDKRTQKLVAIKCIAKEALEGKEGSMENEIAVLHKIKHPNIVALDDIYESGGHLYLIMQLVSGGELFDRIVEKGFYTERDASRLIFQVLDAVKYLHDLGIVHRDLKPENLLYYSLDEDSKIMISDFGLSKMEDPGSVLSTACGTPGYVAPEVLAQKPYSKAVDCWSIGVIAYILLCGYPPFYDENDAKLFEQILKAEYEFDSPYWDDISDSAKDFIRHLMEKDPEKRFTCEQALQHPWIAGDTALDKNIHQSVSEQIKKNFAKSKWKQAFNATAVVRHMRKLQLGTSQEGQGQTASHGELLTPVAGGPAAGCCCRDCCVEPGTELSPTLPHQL
# PAK6, sequence (Q9NQU5 whole entry): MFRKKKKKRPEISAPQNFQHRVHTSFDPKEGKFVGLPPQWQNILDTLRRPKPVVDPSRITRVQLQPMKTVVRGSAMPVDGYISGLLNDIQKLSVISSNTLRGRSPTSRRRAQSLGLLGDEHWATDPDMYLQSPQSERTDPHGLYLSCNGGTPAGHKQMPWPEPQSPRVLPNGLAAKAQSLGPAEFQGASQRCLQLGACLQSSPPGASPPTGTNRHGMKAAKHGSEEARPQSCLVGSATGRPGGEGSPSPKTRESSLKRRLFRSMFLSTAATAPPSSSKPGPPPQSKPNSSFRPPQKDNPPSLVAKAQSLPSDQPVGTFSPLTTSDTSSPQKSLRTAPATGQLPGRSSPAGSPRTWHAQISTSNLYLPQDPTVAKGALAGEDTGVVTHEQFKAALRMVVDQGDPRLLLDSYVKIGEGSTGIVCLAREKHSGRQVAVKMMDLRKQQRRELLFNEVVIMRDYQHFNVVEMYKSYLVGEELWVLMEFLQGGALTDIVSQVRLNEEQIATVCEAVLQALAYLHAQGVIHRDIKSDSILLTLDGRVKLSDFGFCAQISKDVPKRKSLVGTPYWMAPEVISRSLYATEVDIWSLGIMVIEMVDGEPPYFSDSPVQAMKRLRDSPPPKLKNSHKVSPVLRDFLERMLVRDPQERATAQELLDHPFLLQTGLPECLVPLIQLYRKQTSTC
# KIT(L576P), sequence (P10721 whole entry L576P): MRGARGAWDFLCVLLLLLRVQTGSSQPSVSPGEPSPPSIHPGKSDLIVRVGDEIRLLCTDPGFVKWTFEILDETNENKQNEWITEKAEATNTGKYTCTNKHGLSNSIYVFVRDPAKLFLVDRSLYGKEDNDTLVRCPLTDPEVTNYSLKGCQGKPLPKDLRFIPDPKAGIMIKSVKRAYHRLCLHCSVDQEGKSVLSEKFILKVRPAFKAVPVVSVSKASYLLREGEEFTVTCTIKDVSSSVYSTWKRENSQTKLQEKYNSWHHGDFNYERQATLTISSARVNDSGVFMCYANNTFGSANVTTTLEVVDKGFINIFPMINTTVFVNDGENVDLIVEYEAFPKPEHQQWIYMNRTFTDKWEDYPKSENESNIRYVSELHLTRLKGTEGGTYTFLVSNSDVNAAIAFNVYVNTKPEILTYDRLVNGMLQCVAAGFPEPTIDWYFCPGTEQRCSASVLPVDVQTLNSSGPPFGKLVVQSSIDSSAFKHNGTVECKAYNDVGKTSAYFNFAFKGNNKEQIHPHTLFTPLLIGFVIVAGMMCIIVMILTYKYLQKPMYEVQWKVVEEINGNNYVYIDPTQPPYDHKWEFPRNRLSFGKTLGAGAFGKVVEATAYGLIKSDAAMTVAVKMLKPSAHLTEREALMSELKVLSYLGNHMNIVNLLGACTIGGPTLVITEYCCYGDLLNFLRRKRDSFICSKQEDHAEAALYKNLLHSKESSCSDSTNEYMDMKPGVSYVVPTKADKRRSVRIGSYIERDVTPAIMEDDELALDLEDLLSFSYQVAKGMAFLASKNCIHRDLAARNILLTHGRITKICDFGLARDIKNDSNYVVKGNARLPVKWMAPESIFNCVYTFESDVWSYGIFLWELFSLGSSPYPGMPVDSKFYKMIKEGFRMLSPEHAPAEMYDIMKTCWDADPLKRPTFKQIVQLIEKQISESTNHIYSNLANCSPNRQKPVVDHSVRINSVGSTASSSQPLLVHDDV
# T7 sequence (P04629 whole entry): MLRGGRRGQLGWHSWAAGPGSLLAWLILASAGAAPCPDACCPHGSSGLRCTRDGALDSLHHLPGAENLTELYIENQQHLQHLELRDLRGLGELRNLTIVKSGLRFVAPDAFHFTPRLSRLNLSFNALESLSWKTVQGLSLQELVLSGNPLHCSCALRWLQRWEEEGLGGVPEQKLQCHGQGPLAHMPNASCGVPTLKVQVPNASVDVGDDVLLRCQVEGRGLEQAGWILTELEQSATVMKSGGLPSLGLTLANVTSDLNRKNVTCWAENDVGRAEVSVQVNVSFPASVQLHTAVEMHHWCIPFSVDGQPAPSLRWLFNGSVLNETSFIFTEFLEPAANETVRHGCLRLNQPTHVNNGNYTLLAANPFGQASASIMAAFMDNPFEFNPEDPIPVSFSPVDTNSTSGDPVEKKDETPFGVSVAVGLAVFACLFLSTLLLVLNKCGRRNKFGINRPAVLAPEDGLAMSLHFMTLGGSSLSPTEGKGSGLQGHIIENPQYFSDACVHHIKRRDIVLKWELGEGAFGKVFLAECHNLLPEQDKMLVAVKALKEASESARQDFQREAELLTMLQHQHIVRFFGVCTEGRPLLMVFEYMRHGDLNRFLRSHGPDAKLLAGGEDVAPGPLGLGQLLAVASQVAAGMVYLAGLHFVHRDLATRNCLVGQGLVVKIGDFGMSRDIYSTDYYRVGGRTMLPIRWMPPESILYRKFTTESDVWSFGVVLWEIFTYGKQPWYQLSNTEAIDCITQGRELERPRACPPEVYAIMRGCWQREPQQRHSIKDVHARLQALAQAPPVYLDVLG
# PLK1, sequence (P53350 whole entry): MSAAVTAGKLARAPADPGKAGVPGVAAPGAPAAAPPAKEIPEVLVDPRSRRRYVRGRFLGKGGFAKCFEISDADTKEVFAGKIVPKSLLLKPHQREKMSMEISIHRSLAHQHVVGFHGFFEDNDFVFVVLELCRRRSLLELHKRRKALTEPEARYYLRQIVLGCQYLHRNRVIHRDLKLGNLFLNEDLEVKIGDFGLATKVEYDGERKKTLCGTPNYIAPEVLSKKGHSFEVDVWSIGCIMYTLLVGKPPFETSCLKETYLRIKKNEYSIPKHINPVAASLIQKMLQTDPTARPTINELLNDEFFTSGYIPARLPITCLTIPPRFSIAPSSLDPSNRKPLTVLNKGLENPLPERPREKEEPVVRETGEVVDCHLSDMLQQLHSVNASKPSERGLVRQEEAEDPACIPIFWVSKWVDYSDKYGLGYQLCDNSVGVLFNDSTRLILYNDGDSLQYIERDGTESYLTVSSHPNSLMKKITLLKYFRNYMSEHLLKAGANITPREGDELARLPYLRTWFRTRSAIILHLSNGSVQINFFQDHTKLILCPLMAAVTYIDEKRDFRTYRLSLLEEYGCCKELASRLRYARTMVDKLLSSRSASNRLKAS
compound,measurement,setting,value
"[O-][S@@+](Cc1cncs1)C(c1ccccc1)c1ccccc1 [S-CE-123, (S)-5-((Benzhydrylsulfinyl)Methyl)Thiazole]",remaining binding at 2.8 µM,ACVR2B,100%
same,remaining binding at 2.8 µM,CAMK4,91%
same,remaining binding at 2.8 µM,MYO3B,52%
same,remaining binding at 2.8 µM,CDK11,71%
same,remaining binding at 2.8 µM,PAK6,100%
same,remaining binding at 2.8 µM,PAK7,98%
same,remaining binding at 2.8 µM,RAF1,76%
same,remaining binding at 2.8 µM,PLK1,79%
same,remaining binding at 2.8 µM,PRKD2,98%
same,remaining binding at 2.8 µM,FAK,100%
same,remaining binding at 2.8 µM,LOK,95%
same,remaining binding at 2.8 µM,PIP5K2C,100%
same,remaining binding at 2.8 µM,DMPK,96%
same,remaining binding at 2.8 µM,EGFR(S752-I759del),66%
same,remaining binding at 2.8 µM,BRSK2,100%
same,remaining binding at 2.8 µM,ERK3,93%
same,remaining binding at 2.8 µM,TRKA,100%
same,remaining binding at 2.8 µM,LKB1,100%
same,remaining binding at 2.8 µM,PIK3CG,70%
same,remaining binding at 2.8 µM,KIT(L576P),99%
same,remaining binding at 2.8 µM,[1],87%
same,remaining binding at 2.8 µM,RET,96%
same,remaining binding at 2.8 µM,CLK2,93%
same,remaining binding at 2.8 µM,[2],96%
same,remaining binding at 2.8 µM,RIOK2,99%
same,remaining binding at 2.8 µM,CAMK1,97%
